From US20250129120A1, “PEPTIDE HAVING ACTIVITY FOR PREVENTING HAIR LOSS OR PROMOTING HAIR GROWTH, AND USE THEREOF” (CAREGEN CO., LTD., priority 2021, published 2025)

How the values were obtained:
[1] = test system: HHFDPC (human hair follicle dermal papilla cells); assay: MTT proliferation assay in dermal papilla cells; assay type: cell-based; conditions: peptide 500 nM, 5 μM, and 50 μM, 72 hours, vs untreated control, FIG. 1
Protocol: While culturing human hair follicle dermal dermal papilla cells (HHFDPC), the absorbance was measured after treatment with the peptide of the present invention to confirm whether there was an effect of promoting the proliferation of the HHFDPC dermal papilla cells.
Specifically, HHFDPC (Sciencell, USA) was seeded at 4×10^3 cells/well in a 96-well culture plate, cultured in MSC complete medium (mesenchymal stem cell complete media, Sciencell, USA) for 24 hours, and then the medium was replaced with serum free MSC complete medium and cultured for another 24 hours. Then, the HHFDPC was treated with the peptide of SEQ ID NO: 1 prepared in the Preparation Example at concentrations of 500 nM, 5 μM, and 50 μM, respectively, and cultured at 37° C. for 72 hours. As a positive control, minoxidil was treated at a concentration of 1 μM, and as a negative control, HHFDPC without any treatment was used. Then, 10 ? of 5 mg/mL MTT solution was added and cultured in a 37° C. CO2 incubator for 4 hours to stain the cells. After removing the medium, the cells were treated with 100 μl of DMSO and shaken for 10 minutes, and the number of HHFDPC cells was confirmed by measuring absorbance at a wavelength of 540 nm using a spectrophotometer.

[2] = test system: p-AKT; assay: Western blotting of phosphorylated AKT in HHFDPC; assay type: cell-based, human; conditions: peptide 500 nM, 5 μM, and 50 µM, 24 hours, FIG. 2
Protocol: (§1) First, phosphorylated forms of AKT and ERK, which act as signaling molecules related to the proliferation of HHFDPC, were confirmed through Western blotting. Specifically, HHFDPC as in [Experiment Example 1-1] above was seeded at 4×10^5 cells/well in a 6-well culture plate, cultured in MSC complete medium (mesenchymal stem cell complete media) for 24 hours, and then the medium was replaced with serum free MSC complete medium and cultured for another 24 hours. Then, the HHFDPC was treated with the peptide of SEQ ID NO: 1 prepared in the Preparation Example at concentrations of 500 nM, 5 μM, and 50 µM, respectively, and cultured at 37° C. for 24 hours. As a positive control, minoxidil was treated at a concentration of 1 μM, and as a negative control, HHFDPC without any treatment was used. Then, Western blotting was performed to detect phosphorylated AKT and phosphorylated ERK. After washing with PBS, the cells were treated with 100 ? of lysis buffer to destroy cells, thereby obtaining cell lysate. After electrophoresis using a 10% SDS-PAGE gel, it was transferred to a PVDF membrane and blocked using 5% skim milk at room temperature for 30 minutes. […] After washing again with 0.1% PBS-T (0.1% Tween-20 in PBS) three times for 15 minutes each, p-AKT and p-ERK were detected by treatment with ECL solution (GE Healthcare, USA).

[3] = test system: p-ERK; assay: Western blotting of phosphorylated ERK in HHFDPC; assay type: cell-based, human; conditions: peptide 500 nM, 5 μM, and 50 µM, 24 hours, FIG. 2
Protocol: as §1

[4] = test system: β-catenin; assay: Western blotting of β-catenin moved to the nucleus in HHFDPC; assay type: cell-based, human; conditions: HHFDPC nuclear protein, peptide 500 nM, 5 μM, and 50 μM, 24 hours, FIG. 3
Protocol: In addition, in addition to p-AKT and p-ERK, in order to confirm the activation of β-catenin, which is known to affect cell proliferation and differentiation, whether β-catenin moved into the nucleus was confirmed through Western blotting. Specifically, the HHFDPC as in [Experiment Example 1-1] was seeded in a 6-well culture plate at an amount of 4×10^5 cells/well, cultured in MSC complete medium (mesenchymal stem cell complete media) for 24 hours. Next, the medium was replaced with serum free MSC complete medium and cultured again for 24 hours. Then, the HHFDPC was treated with the peptide of SEQ ID NO: 1 prepared in the Preparation Example at concentrations of 500 nM, 5 μM, and 50 μM, respectively, and cultured at 37° C. for 24 hours. As a positive control, minoxidil was treated at a concentration of 1 μM, and as a negative control, HHFDPC without any treatment was used. After washing with PBS, proteins in the nucleus were isolated using a nuclear protein extraction kit (Thermo scientific, USA). After electrophoresis using a 10% SDS-PAGE gel, it was transferred to a PVDF membrane and blocked using 5% skim milk at room temperature for 30 minutes. […] After washing again with 0.1% PBS-T (0.1% Tween-20 in PBS) three times for 15 minutes each, β-catenin was detected by treatment with ECL solution (GE Healthcare, USA).

[5] = test system: LEF-1; assay: RT-PCR of LEF-1 expression in HHFDPC; assay type: cell-based, human; conditions: peptide 500 nM, 5 μM, and 50 μM, 24 hours, FIG. 4
Protocol: (§2) Furthermore, in order to determine whether the β-catenin moves to the nucleus and is activated to affect proliferation and differentiation, whether the expression of LEF-1, c-Myc and cyclin D1 (cyclin D1), which act as downstream factors, increases with β-catenin activation was confirmed through RT-PCR. Specifically, in the same manner as the previous Western blotting experiment, HHFDPC cells were cultured, treated with the peptides of the Preparation Example of the present invention at concentrations of 500 nM, 5 μM, and 50 μM, respectively, and cultured at 37° C. for 24 hours. After washing the cells with PBS, RNA was isolated by treating them with 300 […] of easy blue (intron, Korea). Then, CDNA was synthesized using a cDNA synthesis kit (enzynomics, Korea) by quantifying it with nano drop, and PCR was performed using primers for LEF-1, c-Myc and cyclin D1 (base sequences of the primer are listed in Table 2 below) and PCR premix (enzynomics, Korea). Electrophoresis was performed on a 1.5% agarose gel, and then the mRNA of LEF-1, c-Myc and cyclin D1 was detected using a band analysis system (Bio-Rad gel image system).

[6] = test system: c-Myc; assay: RT-PCR of c-Myc expression in HHFDPC; assay type: cell-based, human; conditions: peptide 500 nM, 5 μM, and 50 μM, 24 hours, FIG. 4
Protocol: as §2

[7] = test system: cyclin D1; assay: RT-PCR of cyclin D1 expression in HHFDPC; assay type: cell-based, human; conditions: peptide 500 nM, 5 μM, and 50 μM, 24 hours, FIG. 4
Protocol: as §2

[8] = test system: DKK-1 protein (dickkopf-related protein 1); assay: Western blotting of DKK-1 protein in DHT-treated HHFDPC; assay type: cell-based, human; conditions: HHFDPC with DHT 100 nM; peptide 500 nM, 5 μM, and 50 μM; 24 hours; vs negative control (DHT only); FIG. 5
Protocol: DKK-1 protein (dickkopf-related protein 1) is a hair loss-related protein known to be highly expressed in individuals with hair loss, especially male pattern hair loss, and its expression is known to be promoted by hormones such as DHT (Dihydrotestosterone). Accordingly, the expression of DKK-1 protein was induced by treating HHFDPC cells with DHT together with the peptide according to the Preparation Example of the present invention, and then the expression level of DKK-1 was measured through Western blotting to determine whether there was an effect of suppressing the expression of DKK-1 protein.
Specifically, HHFDPC as in [Experiment Example 1-1] was seeded in a 6-well culture plate at 4×10^5 cells/well and then cultured in MSC complete medium (mesenchymal stem cell complete media) for 24 hours. Next, the medium was replaced with serum free MSC complete medium and cultured again for 24 hours. In addition, the HHFDPC was treated with the peptide of SEQ ID NO: 1 prepared in Preparation Example at concentrations of 500 nM, 5 μM, and 50 μM, respectively, and at this time, DHT, an expression inducer of DKK-1 protein, was simultaneously treated at a concentration of 100 nM and then cultured at 37° C. for 24 hours. […] After washing again with 0.1% PBS-T (0.1% Tween-20 in PBS) three times for 15 minutes each, DKK-1 protein was detected by treatment with ECL solution (GE Healthcare, USA).

[9] = test system: Ha3-II; assay: RT-PCR of Ha3-II expression in HHORSC; assay type: cell-based, human; conditions: peptide 500 nM, 5 µM, and 50 μM, 72 hours, FIG. 6
Protocol: (§3) Specifically, HHORSC (human hair outer root sheath cell, Sciencell, USA) was seeded in a 6-well culture plate at 4×10^5 cells/well and then cultured in MSC complete medium (mesenchymal stem cell complete media) for 24 hours. Next, the medium was replaced with serum free MSC complete medium and cultured again for 24 hours. Then, the HHORSC was treated with the peptide of SEQ ID NO: 1 prepared in the Preparation Example at concentrations of 500 nM, […], and 50 μM, respectively, and cultured at 37° C. for 72 hours. As a positive control, EGF was treated at a concentration of 50 nM, and as a negative control, HHORSC without any treatment was used. After washing with PBS, RNA was isolated by treating with 300 ? of easy blue (intron, Korea). Then, cDNA was synthesized using a cDNA synthesis kit (enzynomics, Korea) by quantification using nano drop, and PCR was performed using primers for Ha3-II, Keratin 14, and Keratin 19 (the base sequences of primer are shown in Table 3 below) and PCR premix (enzynomics, Korea). Electrophoresis was performed on a 1.5% agarose gel, and the mRNAs of Ha3-II, Keratin 14, and Keratin 19 were detected using a band analysis system (Bio-Rad gel image system).

[10] = test system: Keratin 14; assay: RT-PCR of Keratin 14 expression in HHORSC; assay type: cell-based, human; conditions: peptide 500 nM, and 50 μM, 72 hours, FIG. 6
Protocol: as §3

[11] = test system: Keratin 19; assay: RT-PCR of Keratin 19 expression in HHORSC; assay type: cell-based, human; conditions: peptide 500 nM, and 50 μM, 72 hours, FIG. 6
Protocol: as §3

[12] = test system: MSX2; assay: RT-PCR of MSX2 expression in HHGMC; assay type: cell-based, human; conditions: peptide 500 nM, 5 μM, and 50 μM, 72 hours, FIG. 7
Protocol: Specifically, HHGMC (human hair germinal matrix cell, Sciencell, USA) was seeded in a 6-well culture plate at 4×10^5 cells/well and then cultured in MSC complete medium (mesenchymal stem cell complete media) for 24 hours. Next, the medium was replaced with serum free MSC complete medium and cultured again for 24 hours. Then, the HHGMC was treated with the peptide of SEQ ID NO: 1 prepared in the Preparation Example at concentrations of 500 nM, 5 μM, and 50 μM, respectively, and cultured at 37° C. for 72 hours. As a positive control, EGF was treated at a concentration of 50 nM, and as a negative control, HHGMC without any treatment was used. After washing with PBS, RNA was isolated by treating with 300 ? of easy blue (intron, Korea). Next, cDNA was synthesized using a cDNA synthesis kit (enzynomics, Korea) by quantification using nano drop, and PCR was performed using primers for MSX2 (base sequences of the primer are listed in Table 4 below) and PCR premix (enzynomics, Korea). Electrophoresis was performed on a 1.5% agarose gel, and MSX2 mRNA was detected using a band analysis system (Bio-Rad gel image system).

Which results are given for “GGVPG [peptide of the present invention]”?
proliferation of HHFDPC (absorbance at 540 nm, MTT) [1]: promoted depending on the concentration of the treated peptide; phosphorylation of AKT (p-AKT) [2]: increased compared to the control group not treated with the peptide; phosphorylation of ERK (p-ERK) [3]: increased compared to the control group not treated with the peptide; migration of β-catenin to the nucleus (activation of β-catenin) [4]: migration due to activation of β-catenin increased; amount of LEF-1 mRNA [5]: increased further compared to the control group without any treatment; amount of c-Myc mRNA [6]: increased further compared to the control group without any treatment; amount of cyclin D1 mRNA [7]: increased further compared to the control group without any treatment; amount of DKK-1 protein [8]: reduced; amount of Ha3-II mRNA [9]: increased further compared to the control group that did not receive any treatment; amount of Keratin 14 mRNA [10]: increased further compared to the control group that did not receive any treatment; amount of Keratin 19 mRNA [11]: increased further compared to the control group that did not receive any treatment; amount of MSX2 mRNA [12]: increased further compared to the untreated control group
